Test results reported in the NIST ThermoML archive (doi:10.1021/je100353j).
Where “and” joins values, the source holds several entries; their conditions need not be identical. Identical values can stand only once.

Key:
[1] = xn = mol fraction of the nth substance listed; details: Liquid, x2 = 0
[2] = Liquid

C1CCCCC1 [cyclohexane] + COC(=O)OC
mass density [kg/m3], [1]
Details	100 kPa	5000 kPa	10000 kPa	20000 kPa	30000 kPa	40000 kPa
293.15 K	778.8	782.8	786.6	793.9	801	807.8
298.15 K	773.9	778.3	782.3	789.8	796.7	802.9
303.15 K	769.3	773.6	777.8	785.7	792.8	799.2
308.15 K	764.5	769	773.4	781.5	788.8	795.5
313.15 K	759.7	764.5	768.9	777.4	784.8	791.8

C1CCCCC1 [cyclohexane]
mass density [kg/m3], [2]
Details	101.33 kPa	5000 kPa	10000 kPa	20000 kPa	30000 kPa	40000 kPa
293.15 K	778.8	782.8	786.6	793.9	801	807.8
298.15 K	773.9	778.3	782.3	789.8	796.7	802.9
303.15 K	769.3	773.6	777.8	785.7	792.8	799.2
308.15 K	764.5	769	773.4	781.5	788.8	795.5
313.15 K	759.7	764.5	768.9	777.4	784.8	791.8

COC(=O)OC [dimethyl carbonate]
mass density, [2]
Details	101.33 kPa	5000 kPa	10000 kPa	20000 kPa	30000 kPa	40000 kPa
293.15 K	1069.8 kg/m3	1074.4 kg/m3	1078.6 kg/m3	1086.9 kg/m3	1094.5 kg/m3	1101.9 kg/m3
298.15 K	1063.2 kg/m3	1068 kg/m3	1072.4 kg/m3	1080.8 kg/m3	1088.7 kg/m3	1096.2 kg/m3
303.15 K	1056.5 kg/m3	1061.3 kg/m3	1066 kg/m3 and 1065 kg/m3	1074.7 kg/m3	1082.9 kg/m3	1090.4 kg/m3
308.15 K	1049.8 kg/m3	1054.6 kg/m3	1059.4 kg/m3	1068.5 kg/m3	1077 kg/m3	1084.8 kg/m3
313.15 K	1043 kg/m3	1048.1 kg/m3	1053 kg/m3	1062.3 kg/m3	1071 kg/m3	1079 kg/m3
